Data as given in article PMC10085937 (Clinical Pharmacokinetics, 2023).
“Also recorded” adds a separate entry of the source. Read-outs that look alike come from different tables or passages of the source.

Legend:
[1] = format: in vivo, human; conditions: for Effect of grapefruit juice on cilofexor exposure (AUC and Cmax): grapefruit juice 16 ounces; for Effect of grapefruit juice on cilofexor exposure (AUC and Cmax) / Effect of multiple-dose voriconazole on cilofexor exposure (AUC): vs cilofexor alone; for Effect of multiple-dose voriconazole on cilofexor exposure (AUC): voriconazole 200 mg BID
[2] = test system: CYP2C8; conditions: in vitro; cited from earlier work
[3] = test system: CYP3A; conditions: in vitro; cited from earlier work
[4] = test system: CYP2C9; conditions: in vitro; cited from earlier work
[5] = test system: OATP1B1; conditions: in vitro; ref data on file, Gilead Sciences, Inc.; cited from earlier work
[6] = test system: OATP1B3; conditions: in vitro; ref data on file, Gilead Sciences, Inc.; cited from earlier work
[7] = test system: OATP2B1; conditions: in vitro; ref data on file, Gilead Sciences, Inc.; cited from earlier work
[8] = cited from earlier work
[9] = cited from earlier work; remark: listed apart in the source
[10] = test system: P-gp; conditions: in vitro; cited from earlier work
[11] = test system: BCRP; conditions: in vitro; cited from earlier work
[12] = test system: NTCP; conditions: in vitro; cited from earlier work
[13] = test system: bile salt export pump; conditions: in vitro; cited from earlier work
[14] = test system: organic anion transporter (OAT)1; conditions: in vitro; cited from earlier work
[15] = test system: OAT3; conditions: in vitro; cited from earlier work
[16] = test system: organic cation transporter (OCT)2; conditions: in vitro; cited from earlier work
[17] = test system: multidrug and toxin extrusion protein (MATE) 1; conditions: in vitro; cited from earlier work
[18] = test system: MATE2-K; conditions: in vitro; cited from earlier work
[19] = test system: CYP2C8; conditions: in vitro; rCYP2C8 showing the fastest rate of metabolism; cited from earlier work
[20] = test system: CYP2C19; conditions: in vitro; cited from earlier work
[21] = test system: CYP3A; conditions: in vitro; cited from earlier work; remark: listed apart in the source
[22] = test system: P-glycoprotein (P-gp); conditions: in vitro; cited from earlier work
[23] = test system: breast cancer resistance protein (BCRP); conditions: in vitro; cited from earlier work
[24] = test system: sodium taurocholate co-transporting polypeptide (NTCP); conditions: in vitro; cited from earlier work
[25] = test system: OATP1B1; conditions: in vitro; cited from earlier work
[26] = test system: OATP1B3; conditions: in vitro; cited from earlier work
[27] = test system: OATP2B1; conditions: in vitro; cited from earlier work
[28] = dose range of 10 to 100 mg; cited from earlier work
[29] = format: in vivo, human; conditions: for Effect of multiple-dose cilofexor on midazolam exposure (AUC and Cmax): midazolam 2 mg, vs midazolam alone; for Effect of multiple-dose cilofexor on pravastatin exposure (AUC and Cmax): pravastatin 40 mg; for Effect of multiple-dose cilofexor on pravastatin exposure (AUC and Cmax) / Effect of multiple-dose cilofexor on rosuvastatin exposure (AUC and Cmax): vs alone; for Effect of multiple-dose cilofexor on rosuvastatin exposure (AUC and Cmax): rosuvastatin 10 mg
[30] = following multiple-dose rifampin 600 mg
[31] = with multiple-dose gemfibrozil 600 mg BID
[32] = with single-dose cyclosporine 600 mg
[33] = with single-dose rifampin 600 mg

Question: With O=C(O)c1ccnc(N2CC(O)(c3ccc(OCc4c(-c5c(Cl)cccc5Cl)noc4C4CC4)cc3Cl)C2)c1 [Cilofexor] as the compound, how does the “Cilofexor AUC compared with cilofexor alone” value [1, 30] read?
Answer: 33%

Question: And the “Cilofexor Cmax compared with cilofexor alone” value [1, 30]?
Answer: 35%

Question: And the “Effect of grapefruit juice on cilofexor exposure (AUC and Cmax)” value [1]?
Answer: similar

Question: What about the “Effect of grapefruit juice on cilofexor exposure (AUC and Cmax)” value ([1]; listed as cilofexor) of the same compound?
Answer: did not affect

Question: And the “Effect of multiple-dose voriconazole on cilofexor exposure (AUC)” value [1]?
Answer: similar

Question: What about the “Effect of multiple-dose voriconazole on cilofexor exposure (AUC)” value ([1]; listed as cilofexor) of the same compound?
Answer: did not affect; also recorded: did not impact

Question: What about the “Cilofexor AUC compared with cilofexor alone” value [1, 31] of the same compound?
Answer: 175%

Question: What about the “Cilofexor Cmax compared with cilofexor alone” value [1, 31] of the same compound?
Answer: 139%

Question: What about the “Cilofexor Cmax lower than cilofexor alone” value ([1]; with multiple-dose voriconazole) of the same compound?
Answer: 23%

Question: And the “Median cilofexor t½ longer than cilofexor alone” value ([1]; with single-dose cyclosporine)?
Answer: approximately 2.5 fold

Question: And the “Cilofexor AUC compared with cilofexor alone” value [1, 32]?
Answer: 651%

Question: What about the “Cilofexor Cmax compared with cilofexor alone” value [1, 32] of the same compound?
Answer: 512%

Question: And the “Median cilofexor t½ longer than cilofexor alone” value ([1]; with single-dose rifampin)?
Answer: approximately 2.8 fold

Question: What about the “Cilofexor AUC compared with cilofexor alone” value [1, 33] of the same compound?
Answer: 795%

Question: And the “Cilofexor Cmax compared with cilofexor alone” value [1, 33]?
Answer: 547%

Question: What about the Mechanism-based inhibition [2] of the same compound?
Answer: not a mechanism-based inhibitor

Question: What about the Mechanism-based inhibition [3] of the same compound?
Answer: not a mechanism-based inhibitor

Question: And the Mechanism-based inhibition [4]?
Answer: not a mechanism-based inhibitor

Question: And the IC50 [5]?
Answer: 0.68 µM

Question: What about the IC50 [6] of the same compound?
Answer: 0.41 µM

Question: And the IC50 [7]?
Answer: 0.21 µM

Question: And the “Protein binding in human plasma” value [8]?
Answer: > 99%

Question: And the “Cilofexor dose eliminated in feces” value [9]?
Answer: 96.7%

Question: What about the “Dose remaining as intact cilofexor (feces)” value [9] of the same compound?
Answer: 34.1%

Question: What about the “Inhibition of P-gp” value [10] of the same compound?
Answer: little to no inhibition

Question: And the “Inhibition of BCRP” value [11]?
Answer: little to no inhibition

Question: What about the “Inhibition of NTCP” value [12] of the same compound?
Answer: little to no inhibition

Question: What about the “Inhibition of bile salt export pump” value [13] of the same compound?
Answer: little to no inhibition

Question: And the “Inhibition of OAT1” value [14]?
Answer: little to no inhibition

Question: And the “Inhibition of OAT3” value [15]?
Answer: little to no inhibition

Question: What about the “Inhibition of OCT2” value [16] of the same compound?
Answer: little to no inhibition

Question: And the “Inhibition of MATE1” value [17]?
Answer: little to no inhibition

Question: What about the “Inhibition of MATE2-K” value [18] of the same compound?
Answer: little to no inhibition

Question: What about the “Substrate of CYP2C8” value [19] of the same compound?
Answer: substrate

Question: And the “Substrate of CYP2C19” value [20]?
Answer: substrate

Question: And the “Substrate of CYP3A” value [21]?
Answer: substrate

Question: And the “Substrate of P-gp” value [22]?
Answer: substrate

Question: And the “Substrate of BCRP” value [23]?
Answer: substrate

Question: What about the “Substrate of NTCP” value [24] of the same compound?
Answer: substrate

Question: And the “Substrate of OATP1B1” value [25]?
Answer: substrate

Question: And the “Substrate of OATP1B3” value [26]?
Answer: substrate

Question: And the “Substrate of OATP2B1” value [27]?
Answer: substrate

Question: And the “Dose proportionality of plasma exposure” value [28]?
Answer: less than dose-proportional

Question: Which “Effect of multiple-dose cilofexor on midazolam exposure (AUC and Cmax)” value [29] does the source give for Cc1ncc2n1-c1ccc(Cl)cc1C(c1ccccc1F)=NC2 [midazolam] here?
Answer: did not affect; also recorded: did not alter

Question: What about the “Effect of multiple-dose cilofexor on midazolam exposure (AUC and Cmax)” value ([29]; listed as Midazolam) of the same compound?
Answer: similar

Question: With CC(C)c1c(C(=O)Nc2ccccc2O)c(-c2ccccc2)c(-c2ccc(F)cc2)n1CC[C@@H](O)C[C@@H](O)CC(=O)O [o-OH-atorvastatin, o-hydroxyatorvastatin] as the compound, how does the “o-OH-atorvastatin AUC and Cmax with multiple-dose cilofexor compared to atorvastatin alone” value ([29]; atorvastatin 10 mg) read?
Answer: similar

Question: With CC[C@H](C)C(=O)O[C@H]1C[C@H](O)C=C2C=C[C@H](C)[C@H](CC[C@@H](O)C[C@@H](O)CC(=O)O)[C@H]21 [pravastatin] as the compound, how does the “Effect of multiple-dose cilofexor on pravastatin exposure (AUC and Cmax)” value [29] read?
Answer: did not affect; also recorded: did not alter

Question: And the “Effect of multiple-dose cilofexor on pravastatin exposure (AUC and Cmax)” value ([29]; listed as Pravastatin)?
Answer: similar

Question: For CC(C)c1nc(N(C)S(C)(=O)=O)nc(-c2ccc(F)cc2)c1/C=C/[C@@H](O)C[C@@H](O)CC(=O)O [rosuvastatin], which “Effect of multiple-dose cilofexor on rosuvastatin exposure (AUC and Cmax)” value [29] is on record?
Answer: did not alter

Question: What about the “Effect of multiple-dose cilofexor on rosuvastatin exposure (AUC and Cmax)” value ([29]; listed as Rosuvastatin) of the same compound?
Answer: similar
